pIC50: −log10 of the molar value.
target: T1, RORγ-LBD (Homo sapiens, UniProt P51449); experiment: RORγ-Ligand Binding Domain TR-FRET Assay; format: biochemical; settings: Table 8, indazoles
T1 construct: HIS-tagged RORγ-LBD was recombinantly expressed in SF9 cells; made in house; host or cells: SF9 cells (baculovirus); unpurified lysate
T1 sequence (P51449 269-508 limits assumed): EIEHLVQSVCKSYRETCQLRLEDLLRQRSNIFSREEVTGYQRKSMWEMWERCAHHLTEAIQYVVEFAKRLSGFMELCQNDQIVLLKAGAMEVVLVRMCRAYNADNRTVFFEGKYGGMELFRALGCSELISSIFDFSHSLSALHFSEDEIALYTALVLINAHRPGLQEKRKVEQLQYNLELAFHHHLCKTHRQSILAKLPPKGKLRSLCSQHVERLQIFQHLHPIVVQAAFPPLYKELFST
Outline: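 Unpurified His-tagged LBD in Sf9 lysate (~10 nM final) in 25 mM HEPES pH 7.0, 100 mM NaCl, 0.01% Tween, 0.1% BSA, with biotinylated SRC1-2 LXXLL peptide (450 nM), Eu anti-His (2 nM) and streptavidin-APC (60 nM). Incubated 4 h to overnight; IC50 from 665/615 nm TR-FRET ratio.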

pIC50 | SMILES
> 4.82 | O=C(Nc1ccc2cnn(S(=O)(=O)Cc3ccccc3)c2c1)c1c(F)cccc1Cl [Compound V-155]
> 4.82 | O=C(Nc1ccc2cnn(S(=O)(=O)c3ccc(Cl)cc3)c2c1)c1c(F)cccc1Cl [Compound V-156]
> 4.82 | COc1ccc(S(=O)(=O)n2ncc3ccc(NC(=O)c4c(F)cccc4Cl)cc32)cc1 [Compound V-157]
> 4.82 | Cc1ccc(S(=O)(=O)n2ncc3ccc(NC(=O)c4c(F)cccc4Cl)cc32)cc1 [Compound V-158]
> 4.82 | O=C(Nc1ccc2cnn(S(=O)(=O)c3ccccc3)c2c1)c1c(F)cccc1Cl [Compound V-159]
> 4.82 | O=C(Nc1ccc2cnn(S(=O)(=O)Cc3ccc(F)cc3)c2c1)c1c(F)cccc1Cl [Compound V-160]
> 4.82 | O=C(Nc1ccc2cnn(S(=O)(=O)c3cc(F)cc(C(F)(F)F)c3)c2c1)c1c(F)cccc1Cl [Compound V-161]
> 4.82 | COc1ccc(S(=O)(=O)n2ncc3ccc(NC(=O)c4c(F)cccc4Cl)cc32)cn1 [Compound V-162]
> 4.82 | Cc1cc(F)ccc1S(=O)(=O)n1ncc2ccc(NC(=O)c3c(F)cccc3Cl)cc21 [Compound V-163]
> 4.82 | COc1ccc(S(=O)(=O)n2ncc3ccc(NC(=O)c4c(F)cccc4Cl)cc32)cc1F [Compound V-164]
> 4.82 | Cc1ccc(F)cc1S(=O)(=O)n1ncc2ccc(NC(=O)c3c(F)cccc3Cl)cc21 [Compound V-165]
> 4.82 | O=C(Nc1ccc2cnn(S(=O)(=O)c3ccc(F)cc3Cl)c2c1)c1c(F)cccc1Cl [Compound V-166]
> 4.82 | O=C(Nc1ccc2cnn(S(=O)(=O)c3cccc(Cl)c3F)c2c1)c1c(F)cccc1Cl [Compound V-167]
> 4.82 | O=C(Nc1ccc2cnn(S(=O)(=O)c3ccc(F)cc3F)c2c1)c1c(F)cccc1Cl [Compound V-168]
> 4.82 | O=C(Nc1ccc2cnn(S(=O)(=O)c3cc(Cl)ccc3F)c2c1)c1c(F)cccc1Cl [Compound V-169]
> 4.82 | O=C(Nc1ccc2cnn(S(=O)(=O)c3ccc(F)c(F)c3)c2c1)c1c(F)cccc1Cl [Compound V-170]
> 4.82 | O=C(Nc1ccc2cnn(S(=O)(=O)c3ccc(F)cc3)c2c1)c1c(F)cccc1Cl [Compound V-171]

same assay, conditions: benzoxazines, Table 9

SMILES | pIC50
C[C@H]1CN(S(=O)(=O)c2cccc(C#N)c2)c2cc(NC(=O)c3c(F)cccc3F)ccc2O1 [VI-2] | > 4.82
C[C@H]1CN(S(=O)(=O)c2cccc(C#N)c2)c2cc(NC(=O)c3c(Cl)cccc3Cl)ccc2O1 [VI-3] | > 4.82
C[C@H]1CN(S(=O)(=O)c2cccc(C#N)c2)c2cc(NC(=O)c3c(F)cccc3C(F)(F)F)ccc2O1 [VI-4] | > 4.82
C[C@H]1CN(S(=O)(=O)c2cccc(C#N)c2)c2cc(NC(=O)c3c(Cl)cccc3C(F)(F)F)ccc2O1 [VI-5] | > 4.82
C[C@H]1CN(S(=O)(=O)c2cccc(C#N)c2)c2cc(NC(=O)c3c(F)cccc3Cl)ccc2O1 [VI-6] | > 4.82
O=C(Nc1ccc2c(c1)N(S(=O)(=O)c1ccc(F)cc1)CC(CC(F)(F)F)O2)c1c(F)cccc1Cl (stereo not shown) [VI-7] | > 4.82
C[C@H](O)[C@H]1CN(S(=O)(=O)c2ccc(F)cc2)c2cc(NC(=O)c3c(Cl)cccc3C(F)(F)F)ccc2O1 [VI-16] | > 4.82
C[C@@H](O)[C@H]1CN(S(=O)(=O)c2ccc(F)cc2)c2cc(NC(=O)c3c(F)cccc3Cl)ccc2O1 [VI-17] | > 4.82
C[C@H]1CN(S(=O)(=O)c2ccc(F)cc2)c2cc(NC(=O)c3c(Cl)cccc3Cl)ccc2O1 [VI-18] | > 4.82
C[C@H]1CN(S(=O)(=O)c2ccc(F)cc2)c2cc(NC(=O)c3c(F)cccc3C(F)(F)F)ccc2O1 [VI-19] | > 4.82
C[C@H]1CN(S(=O)(=O)c2ccc(F)cc2)c2cc(NC(=O)c3c(Cl)cccc3C(F)(F)F)ccc2O1 [VI-20] | > 4.82
Cc1cccc(Cl)c1C(=O)Nc1ccc2c(c1)N(S(=O)(=O)c1ccc(F)cc1)C[C@H](C)O2 [VI-21] | > 4.82
C[C@@H](O)[C@H]1CN(S(=O)(=O)c2ccc(F)cc2)c2cc(NC(=O)c3c(Cl)cccc3C(F)(F)F)ccc2O1 [VI-22] | > 4.82
C[C@H](O)[C@H]1CN(S(=O)(=O)c2ccc(F)cc2)c2cc(NC(=O)c3c(F)cccc3Cl)ccc2O1 [VI-23] | > 4.82
NCC1CN(S(=O)(=O)c2ccc(F)cc2)c2cc(NC(=O)c3c(F)cccc3Cl)ccc2O1 (stereo not shown) [VI-31] | > 4.82
CCCNCC1CN(S(=O)(=O)c2ccc(F)cc2)c2cc(NC(=O)c3c(F)cccc3Cl)ccc2O1 (stereo not shown) [VI-33] | > 4.82
CCNCC1CN(S(=O)(=O)c2ccc(F)cc2)c2cc(NC(=O)c3c(F)cccc3Cl)ccc2O1 (stereo not shown) [VI-34] | > 4.82
O=C(Cc1ccc(Cl)cc1)Nc1ccc2c(c1)N(S(=O)(=O)c1ccc(Cl)cc1)C[C@@H](CO)O2 [VI-50] | > 4.82
O=C(Cc1ccc(F)cc1)Nc1ccc2c(c1)N(S(=O)(=O)c1ccc(Cl)cc1)C[C@@H](CO)O2 [VI-53] | > 4.82
O=C(Nc1ccc2c(c1)N(S(=O)(=O)c1ccc(Cl)cc1)C[C@@H](CO)O2)c1c(F)cccc1Cl [VI-54] | > 4.82
O=C(Nc1ccc2c(c1)N(S(=O)(=O)c1ccc(Cl)cc1)C[C@@H](CO)O2)c1c(F)cccc1F [VI-55] | > 4.82
N#Cc1cccc(S(=O)(=O)N2C[C@@H](CO)Oc3ccc(NC(=O)Cc4ccc(Cl)cc4)cc32)c1 [VI-56] | > 4.82
N#Cc1cccc(S(=O)(=O)N2C[C@@H](CO)Oc3ccc(NC(=O)c4c(F)cccc4C(F)(F)F)cc32)c1 [VI-57] | > 4.82
N#Cc1cccc(S(=O)(=O)N2C[C@@H](CO)Oc3ccc(NC(=O)Cc4ccc(F)cc4)cc32)c1 [VI-58] | > 4.82
N#Cc1cccc(S(=O)(=O)N2C[C@@H](CO)Oc3ccc(NC(=O)c4c(F)cccc4Cl)cc32)c1 [VI-59] | > 4.82

Continued, values first:

pIC50 | SMILES
> 4.82 | N#Cc1cccc(S(=O)(=O)N2C[C@@H](CO)Oc3ccc(NC(=O)c4c(F)cccc4F)cc32)c1 [VI-60]
> 4.82 | N#Cc1cccc(S(=O)(=O)N2C[C@H](CO)Oc3ccc(NC(=O)Cc4ccc(Cl)cc4)cc32)c1 [VI-61]
> 4.82 | N#Cc1cccc(S(=O)(=O)N2C[C@H](CO)Oc3ccc(NC(=O)Cc4ccc(F)cc4)cc32)c1 [VI-64]
> 4.82 | N#Cc1cccc(S(=O)(=O)N2C[C@H](CO)Oc3ccc(NC(=O)c4c(F)cccc4F)cc32)c1 [VI-65]
> 4.82 | O=C(Cc1ccc(Cl)cc1)Nc1ccc2c(c1)N(S(=O)(=O)c1ccc(Cl)cc1)C[C@H](CO)O2 [VI-66]
> 4.82 | O=C(Cc1ccc(F)cc1)Nc1ccc2c(c1)N(S(=O)(=O)c1ccc(Cl)cc1)C[C@H](CO)O2 [VI-68]
< 4.82 | COCC1CN(S(=O)(=O)c2ccc(F)c(F)c2)c2cc(NC(=O)Cc3ccc(Cl)cc3)ccc2O1 (stereo not shown) [VI-69]
> 4.82 | O=C(Cc1ccc(Cl)cc1)Nc1ccc2c(c1)N(S(=O)(=O)c1ccc(F)c(F)c1)C[C@@H](CO)O2 [VI-71]
> 4.82 | O=C(Cc1ccc(F)cc1)Nc1ccc2c(c1)N(S(=O)(=O)c1ccc(F)c(F)c1)C[C@@H](CO)O2 [VI-74]
> 4.82 | O=C(Cc1ccc(Cl)cc1)Nc1ccc2c(c1)N(S(=O)(=O)c1ccc(F)cc1)C[C@H](CO)O2 [VI-77]
> 4.82 | O=C(Nc1ccc2c(c1)N(S(=O)(=O)c1ccc(F)cc1)CC(C(F)(F)F)O2)c1c(F)cccc1F (stereo not shown) [VI-111]
> 4.82 | O=C(Nc1ccc2c(c1)N(S(=O)(=O)c1ccc(F)cc1)CC(C(F)(F)F)O2)c1c(F)cccc1Cl (stereo not shown) [VI-117]
> 4.82 | C[C@H]1CN(S(=O)(=O)c2ccc(F)cc2)c2cc(NC(=O)Cc3ccncc3)ccc2O1 [VI-130]
> 4.82 | C[C@H]1CN(S(=O)(=O)c2ccc(F)cc2)c2cc(NC(=O)C3(c4ccc(Cl)cc4)CC3)ccc2O1 [VI-131]
> 4.82 | C[C@H]1CN(S(=O)(=O)c2ccc(F)cc2)c2cc(NC(=O)C3(c4ccc(Cl)cc4)CCCC3)ccc2O1 [VI-132]
> 4.82 | C[C@H](C(=O)Nc1ccc2c(c1)N(S(=O)(=O)c1ccc(F)cc1)C[C@H](C)O2)c1ccccc1 [VI-133]
> 4.82 | C[C@H]1CN(S(=O)(=O)c2ccc(F)cc2)c2cc(NC(=O)[C@H](C)c3ccccc3)ccc2O1 [VI-134]
> 4.82 | C[C@H]1CN(S(=O)(=O)c2ccc(F)cc2)c2cc(NC(=O)C(C)(C)c3ccc(Cl)cc3)ccc2O1 [VI-135]
> 4.82 | CC(C(=O)Nc1ccc2c(c1)N(S(=O)(=O)c1ccc(F)cc1)C[C@H](C)O2)c1ccc(Cl)cc1 (stereo partly shown) [VI-136]

— patent US9512111B2, “N-sulfonylated tetrahydroquinolines and related bicyclic compounds for inhibition of RORγ activity and the treatment of disease” (Lycera Corporation, priority 2010, dated 2016)
